ChEMBL document CHEMBL1201862, “PubChem BioAssay data set” (2004)
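Compound exposure: 48 hours, 5 concentrations, 96-well plates. GI50 is the concentration that inhibits growth by half.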 Active and inactive are the calls of the source. No stated cut-off is given here; in the data, active = GI50 up to about 1.1 µM and inactive = higher.

How the values were obtained:
Assay in all cases: growth of human tumour cells (NCI), 48 h
A549 = tested on: A549
ACHN = tested on: ACHN
CAKI-1 = tested on: CAKI-1
COLO 205 = tested on: COLO 205
HOP-62 = tested on: HOP-62
HT-29 = tested on: HT-29
KM-20L2 = tested on: KM-20L2
KM12 = tested on: KM12
LOX IMVI = tested on: LOX IMVI
M14 = tested on: M14
M19-MEL = tested on: M19-MEL
MOLT-4 = tested on: MOLT-4
Malme-3M = tested on: Malme-3M
NCI-H226 = tested on: NCI-H226
OVCAR-3 = tested on: OVCAR-3
RXF 393 = tested on: RXF 393
SK-MEL-28 = tested on: SK-MEL-28
SR = tested on: SR
HL-60 = tested on: HL-60

Measured: GI50

C#CCN(N=O)C(=O)NCCCC(NC(C)=O)C(=O)NCc1ccccc1 (stereo not drawn)
inactive: A549 > 100 µM | ACHN 56.2 µM | CAKI-1 54.6 µM | COLO 205 66.4 µM | HOP-62 > 100 µM | HT-29 > 100 µM | KM-20L2 > 100 µM | KM12 > 100 µM | LOX IMVI 82.2 µM | M14 > 100 µM | M19-MEL > 100 µM | MOLT-4 15.3 µM | Malme-3M > 100 µM | NCI-H226 > 100 µM | OVCAR-3 > 100 µM | RXF 393 > 100 µM | SK-MEL-28 > 100 µM | SR 6.3 µM

CN1/C(=C/C(=O)c2ccc(Cl)cc2)Nc2ccccc21
inactive: A549 25.9 µM | ACHN 33 µM | CAKI-1 20 µM | COLO 205 38 µM | HL-60 25.1 µM | HT-29 50.7 µM | KM-20L2 29.2 µM | KM12 42.4 µM | LOX IMVI 39.3 µM | M14 67.3 µM | M19-MEL 38.2 µM | MOLT-4 22.6 µM | Malme-3M > 100 µM | NCI-H226 13.6 µM | OVCAR-3 47.1 µM | RXF 393 > 100 µM | SK-MEL-28 99.1 µM | SR 32.2 µM

CC(C)(C)OP(=O)(OC(C)(C)C)C(O)c1ccc(/C=C(\C#N)C(N)=O)cc1 (stereo not drawn)
inactive: A549 > 100 µM | ACHN > 100 µM | CAKI-1 > 100 µM | COLO 205 > 100 µM | HL-60 38.9 µM | HOP-62 > 100 µM | HT-29 > 100 µM | KM-20L2 > 100 µM | KM12 > 100 µM | LOX IMVI > 100 µM | M14 > 100 µM | M19-MEL > 100 µM | MOLT-4 > 100 µM | Malme-3M > 100 µM | NCI-H226 > 100 µM | OVCAR-3 > 100 µM | RXF 393 > 100 µM | SK-MEL-28 > 100 µM

COc1ccc(N2C(=O)C3c4[nH]c5ccccc5c4C4CCCCCCCCCCC4C3C2=O)cc1 (stereo not drawn)
inactive: A549 4.84 µM | ACHN 29.4 µM | CAKI-1 35.4 µM | COLO 205 14.7 µM | HL-60 18.9 µM | HOP-62 20.3 µM | HT-29 4.42 µM | KM-20L2 3.15 µM | KM12 7.03 µM | LOX IMVI 11.1 µM | M14 7.8 µM | M19-MEL 25.1 µM | MOLT-4 15 µM | Malme-3M 17.1 µM | NCI-H226 6.93 µM | OVCAR-3 9.95 µM | SK-MEL-28 11.9 µM | SR 10.8 µM

COc1cc2c(cc1C1=NC(C)(C)CO1)OCO2
inactive: A549 > 100 µM | ACHN > 100 µM | CAKI-1 > 100 µM | COLO 205 > 100 µM | HL-60 > 100 µM | HOP-62 > 100 µM | HT-29 > 100 µM | KM-20L2 > 100 µM | KM12 > 100 µM | M14 > 100 µM | M19-MEL > 100 µM | MOLT-4 > 100 µM | Malme-3M > 100 µM | NCI-H226 > 100 µM | OVCAR-3 > 100 µM | RXF 393 > 100 µM | SK-MEL-28 > 100 µM | SR > 100 µM

CN(C)c1ccc(/C=c2\sc3nnc(-c4cccnc4)n3c2=O)cc1
inactive: A549 > 100 µM | ACHN > 100 µM | CAKI-1 > 100 µM | COLO 205 > 100 µM | HL-60 > 100 µM | HOP-62 > 100 µM | KM-20L2 > 100 µM | KM12 > 100 µM | LOX IMVI > 100 µM | M14 > 100 µM | M19-MEL > 100 µM | MOLT-4 > 100 µM | Malme-3M > 100 µM | NCI-H226 > 100 µM | OVCAR-3 > 100 µM | RXF 393 > 100 µM | SK-MEL-28 > 100 µM

CC(C)C(Sc1nc(-c2ccccc2)c(-c2ccccc2)[nH]1)c1n[nH]c(=S)n1-c1ccccc1 (stereo not drawn)
inactive: A549 33.7 µM | ACHN 29.6 µM | COLO 205 23.9 µM | HL-60 20.7 µM | HOP-62 44.6 µM | HT-29 23.8 µM | KM-20L2 29.1 µM | KM12 16.1 µM | LOX IMVI 17.5 µM | M14 19.2 µM | M19-MEL 17.5 µM | MOLT-4 18 µM | Malme-3M 21.2 µM | NCI-H226 37.7 µM | OVCAR-3 19.6 µM | SK-MEL-28 29.9 µM | SR 32.2 µM

CC(C)=CC(=O)c1c(C(=O)O)nc2ccccc2[n+]1[O-]
inactive: A549 > 100 µM | ACHN > 100 µM | CAKI-1 > 100 µM | COLO 205 > 100 µM | HL-60 > 100 µM | HOP-62 > 100 µM | HT-29 > 100 µM | KM-20L2 > 100 µM | KM12 > 100 µM | LOX IMVI > 100 µM | M14 > 100 µM | M19-MEL > 100 µM | MOLT-4 > 100 µM | NCI-H226 > 100 µM | RXF 393 > 100 µM | SK-MEL-28 > 100 µM | SR > 100 µM

CN1S(=O)(=O)N(C)P12(N=P(CP(=NP13(N(C)S(=O)(=O)N1C)N(C)S(=O)(=O)N3C)(c1ccccc1)c1ccccc1)(c1ccccc1)c1ccccc1)N(C)S(=O)(=O)N2C
inactive: A549 > 100 µM | ACHN > 100 µM | CAKI-1 > 100 µM | COLO 205 > 100 µM | HL-60 > 100 µM | HOP-62 > 100 µM | HT-29 > 100 µM | KM-20L2 > 100 µM | KM12 > 100 µM | LOX IMVI > 100 µM | M14 > 100 µM | M19-MEL > 100 µM | MOLT-4 > 100 µM | Malme-3M > 100 µM | NCI-H226 > 100 µM | OVCAR-3 > 100 µM | RXF 393 > 100 µM | SK-MEL-28 > 100 µM

CSc1nc(NC2OCC(OC(C)=O)C(OC(C)=O)C2OC(C)=O)c(/N=C\C=N\c2c(NC3OCC(OC(C)=O)C(OC(C)=O)C3OC(C)=O)nc(SC)n(C)c2=O)c(=O)n1C (stereo not drawn)
inactive: A549 > 100 µM | ACHN > 100 µM | COLO 205 > 100 µM | HL-60 > 100 µM | HOP-62 > 100 µM | HT-29 > 100 µM | KM-20L2 > 100 µM | KM12 > 100 µM | LOX IMVI > 100 µM | M14 > 100 µM | M19-MEL > 100 µM | Malme-3M > 100 µM | OVCAR-3 > 100 µM | RXF 393 > 100 µM | SK-MEL-28 > 100 µM | SR > 100 µM

COc1cc(/C=C/c2ccc(OC(C)=O)cc2)cc(OC)c1OC
inactive: A549 26.1 µM | ACHN 15.5 µM | CAKI-1 27.9 µM | COLO 205 27.8 µM | HL-60 12.4 µM | HOP-62 45.7 µM | HT-29 34.9 µM | KM-20L2 33.7 µM | KM12 32 µM | LOX IMVI 29.2 µM | M14 27.9 µM | M19-MEL 39.9 µM | MOLT-4 16.7 µM | Malme-3M 26 µM | NCI-H226 35.8 µM | OVCAR-3 22.6 µM | RXF 393 11.1 µM | SK-MEL-28 41.5 µM
